Test results as given in patent US7087626B2, “Pyrrole derivatives as pharmaceutical agents” (Eli Lilly and Company, priority 2001, dated 2006).
Where a name gives a salt, the structure may show the parent alone.

tested on: TGF-β dependent luciferase production in Mv1Lu C1 cells (p3TP-Lux reporter); assay: MV1LU p3TP-Lux assay; format: cell-based; details: TGF-β1 10 pM, 16-20 hrs
Text: A stable Mv1Lu clone (C1) containing the p3TP-Lux reporter was created by standard transfection and puromycin selection protocols. This stable clone was used to screen the example compounds for their ability to inhibit TGF-β dependent luciferase production as briefly described below: • 1. Plated Mv1Lu C1 cells in Wallac™ Black Isoplates • 2. Allowed cells to adhere overnight. • 3. Removed media and replaced with 0.5% FBS DMEM media • 4. Added the compound dilution series in 0.5% FBS/DMEM containing 1% DMSO such that the final compound concentration ranged from 20 uM to 0.1 nM and the final DMSO concentration was 0.2%. • 5. Incubated at 37° C./5% CO2 for 2 hrs. • 6. Added 0.5% FBS/DMEM as control or TGF-β1 diluted in 0.5% FBS/DMEM (final concentration of 10 pM) to the −/+ TGF-β wells respectively • 7. Incubated for 16-20 hrs. at 37° C./5% CO2 • 8. Removed media and rinsed 1× with PBS. • 9. Removed PBS and lysed the cells with 1× Passive Lysis Buffer (Promega) at room temperature. • 10. Counted relative luciferase activity on the MicroBeta JET by injecting Luciferase Assay Reagent II (PROMEGA).
The use of the above assay in measuring TGF-β responsive activity is described in Wrana, et al. Cell 71: 1003-1014 (1992).

IC50, < 20 µM:
Cc1cccc(-c2nn3c(c2-c2ccnc4ccc(-c5ccc6c(c5)OCO6)cc24)CCC3)n1 [6-Benzo[1,3]dioxol-5-yl-4-[2-(6-methyl-pyridin-2-yl)-5,6-dihydro-4H-pyrrolo[1,2-b]pyrazol-3-yl]-quinoline]
c1ccc(-c2nn3c(c2-c2ccnc4cc(OCCCN5CCCCCC5)ccc24)CCC3)nc1 [7-(3-azepan-1-yl-propoxy)-4-(2-pyridin-2-yl-5,6-dihydro-4H-pyrrolo[1,2-b]pyrazol-3-yl)-quinoline]
Cc1cccc(-c2nn3c(c2-c2ccnc4cc(OCCCCl)ccc24)CCC3)n1 [7-(3-chloro-propoxy)-4-[2-(6-methyl-pyridin-2-yl)-5,6-dihydro-4H-pyrrolo[1,2-b]pyrazol-3-yl]-quinoline]
Cc1cccc(-c2nn3c(c2-c2ccnc4c(F)cccc24)CCC3)n1 [8-Fluoro-4-[2-(6-methyl-pyridin-2-yl)-5,6-dihydro-4H-pyrrolo[1,2-b]pyrazol-3-yl]-quinoline]
Cc1cccc(-c2nn3c(c2-c2ccnc4cc(CCC(=O)N(C)C)ccc24)CCC3)n1 [N,N-Dimethyl-3-{4-[2-(6-methyl-pyridin-2-yl)-5,6-dihydro-4H-pyrrolo[1,2-b]pyrazol-3-yl]-quinolin-7-yl}-propionamide]
OCc1cccc(-c2nn3c(c2-c2ccnc4ccccc24)CCC3)n1 [[6-(3-Quinolin-4-yl-5,6-dihydro-4H-pyrrolo[1,2-b]pyrazol-2-yl)-pyridin-2-yl]-methanol]

molecular target: T1, KDR (VEGFR2) (Homo sapiens, UniProt P35968); assay: KDR (VEGFR2) in vitro kinase assay; format: biochemical; details: 1 ug enzyme, 1 uM ATP, 30° C., 20 min
T1 construct: The 6×-HIS tagged cytoplasmic kinase domain of KDR was expressed and purified from Sf9 insect cell lysates; 6xHis; made in house; host or cells: Sf9 insect cells
Method: KDR (VEGFR2) Purification and in vitro Kinase Assay
The 6×-HIS tagged cytoplasmic kinase domain of KDR was expressed and purified from Sf9 insect cell lysates as described above with the following modification:
1× kinase buffer for chromatography washes and elution was changed to 100 mM HEPES pH 7.5, 10 mM MnCl2 and 5 mM β-mercaptoethanol. The resulting material was approximately 40% pure and had tyrosine autophosphorylation activity.
Reactions: 1 ug enzyme in 1×KB, compound dilution series in 1×KB/16% DMSO (20 uM to 1 nM final concentration with 4% DMSO final concentration), reactions were started by adding ATP mix (1 uM ATP/1 uCi ^33P-[…]-ATP final concentrations) in 1×KB.
Reactions were incubated at 30° C. for 20 min. The reactions were stopped and quantitated using standard TCA/BSA precipitation onto Millipore FC glass fiber filter plates and by liquid scintillation counting on a MicroBeta JET.

T1 sequence (P35968 834-1162 limits assumed, species assumed): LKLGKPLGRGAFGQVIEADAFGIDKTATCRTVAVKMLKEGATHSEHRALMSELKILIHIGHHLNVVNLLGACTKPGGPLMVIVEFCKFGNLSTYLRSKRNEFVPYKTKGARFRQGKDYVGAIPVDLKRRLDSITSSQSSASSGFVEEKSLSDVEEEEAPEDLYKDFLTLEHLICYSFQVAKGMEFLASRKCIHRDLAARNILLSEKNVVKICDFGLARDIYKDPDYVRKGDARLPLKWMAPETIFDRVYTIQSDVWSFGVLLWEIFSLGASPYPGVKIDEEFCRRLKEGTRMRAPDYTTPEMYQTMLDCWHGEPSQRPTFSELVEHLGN

IC50, < 20 µM:
NCCCOc1ccc2c(-c3c(-c4ccccn4)nn4c3CCC4)ccnc2c1 [3-[4-(2-pyridin-2-yl-5,6-dihydro-4H-pyrrolo[1,2-b]pyrazol-3-yl)-quinolin-7-yloxy]-propylamine]
c1ccc(-c2nn3c(c2-c2ccnc4cc(OCCCn5ccnn5)ccc24)CCC3)nc1 [4-(2-Pyridin-2-yl-5,6-dihydro-4H-pyrrolo[1,2-b]pyrazol-3-yl)-7-(3-[1,2,3]triazol-1-yl-propoxy)-quinoline]
c1ccc(-c2nn3c(c2-c2ccnc4cc(OCCCN5CCCC5)ccc24)CCC3)nc1 [4-(2-Pyridin-2-yl-5,6-dihydro-4H-pyrrolo[1,2-b]pyrazol-3-yl)-7-(3-pyrrolidin-1-yl-propoxy)-quinoline]
Oc1ccc2c(-c3c(-c4ccccn4)nn4c3CCC4)ccnc2c1 [4-(2-Pyridin-2-yl-5,6-dihydro-4H-pyrrolo[1,2-b]pyrazol-3-yl)-quinolin-7-ol]
CC(=O)NCCNC(=O)c1ccc2c(-c3c(-c4ccccn4)nn4c3CCC4)ccnc2c1 [4-(2-Pyridin-2-yl-5,6-dihydro-4H-pyrrolo[1,2-b]pyrazol-3-yl)-quinoline-7-carboxylic acid (2-acetylamino-ethyl)-amide]
c1ccc(-c2nn3c(c2-c2ccnc4ccccc24)OCC3)nc1 [4-(6-Pyridin-2-yl-2,3-dihydro-pyrazolo[5,1-b]oxazol-7-yl)-quinoline dioxylate salt]
Cc1cccc(-c2nn3c(c2-c2ccnc4cc(OCCCN5CCOCC5)ccc24)CCC3)n1 [4-[2-(6-Methyl-pyridin-2-yl)-5,6-dihydro-4H-pyrrolo[1,2-b]pyrazol-3-yl]-7-(3-morpholin-4-yl-propoxy)-quinoline]
Cc1cccc(-c2nn3c(c2-c2ccnc4cc(C(=O)NCCCN(C)C)ccc24)CCC3)n1 [4-[2-(6-Methyl-pyridin-2-yl)-5,6-dihydro-4H-pyrrolo[1,2-b]pyrazol-3-yl]-quinoline-7-carboxylic acid (3-dimethylamino-propyl)-amide]
COC(=O)c1ccc2c(-c3c(-c4cccc(C)n4)nn4c3CCC4)ccnc2c1 [4-[2-(6-Methyl-pyridin-2-yl)-5,6-dihydro-4H-pyrrolo[1,2-b]pyrazol-3-yl]-quinoline-7-carboxylic acid methyl ester]
CN(CCCOc1ccc2c(-c3c(-c4ccccn4)nn4c3CCC4)ccnc2c1)Cc1ccccc1 [Benzyl-methyl-{3-[4-(2-pyridin-2-yl-5,6-dihydro-4H-pyrrolo[1,2-b]pyrazol-3-yl)-quinolin-7-yloxy]-propyl}-amine]
